Broadly, the NOAEL is the highest dose or exposure tested at which no adverse effect was seen.

This note sets out measurements from paper PMC7849180 (Frontiers in Pharmacology, 2020).

Where two headings read alike, the source gives them in different places.

The nature of data set [1]: Single-dose oral toxicity. Type of data set: in vivo, Beagle dogs. The procedure: (§1) Suzhou Zelgen Biopharmaceuticals Co., Ltd. Jaktinib Hydrochloride Tablets Chemical Drug Class 1 New Drug
During the trial, the general conditions of the […]
measured once on days 3, 7, and 13, respectively. After 14 days of observation, the […]
and blood biochemistry tests. All rats were euthanized for gross anatomy. […]
after drug administration. […] During the […]
biochemistry tests were performed on days 2 and 15. After 14 days of observation, all dogs were anesthetized and euthanized for gross anatomy. Blood samples were […]
administration in ZG0128 dose groups. LC-MS/MS was used to measure the […]
AUClast, Cmax, Tmax, and other toxicokinetic parameters.

The nature of data set [2]: 28-day oral gavage toxicity. To be noted: for drug exposure: 24.4 mg/kg. The data set is classed as in vivo, Wistar rats. The procedure:
Suzhou Zelgen Biopharmaceuticals Co., Ltd. Jaktinib Hydrochloride Tablets Chemical Drug Class 1 New Drug […]
active ingredient ZG0163). The control group contained 36 Wistar rats (6 rats were used for the toxicokinetic test) and each group of ZG0128 contained 54 rats (24 rats in each group were used for the toxicokinetic test), with half males and half females. The rats in each group were given the control substance (0.5% CMC-Na solution) or the corresponding concentrations of ZG0128 in a 10 mL/kg volume by oral gavage once a […]
The day of the first dose […]
is defined as day 1 of the dosing period, while the day of anatomy after the last dose is defined as day 1 of the recovery period. During the dosing period and the recovery […]
the body weight and food intake of the rats were measured twice a week during the […]
recovery periods, respectively. In the 219.6 mg/kg group, 12 (3 females, 9 males) and […]
and recovery periods, respectively. The rats in each group were anesthetized to collect blood samples for hematology and blood biochemistry tests. After the rats were […]
histopathological examination of tissue samples were performed. For the rats in […]
ZG0128 groups used for toxicokinetic test, their blood samples were collected before the first dose and last dose as well as 0.5, 1, 2, 3, 4, 6, 10, and 24 h after the first dose and last dose. For the rats in the control group, their blood samples were collected before the first dose and last dose and 3 h after the first dose and last dose, respectively.
LC-MS/MS was used to measure the concentrations of the original drug ZG0163 and its amide hydrolysis metabolite ZG0245 in the blood samples collected at various time […]
tissues, spleen, thymus, and bone marrow), digestive system (gastrointestinal tract, pancreas, and submandibular gland), reproduction system, kidney, and bones. The drug caused abnormal indicators related to liver, renal, and pancreatic functions, as well as decreased lymphocytes and platelets. At the dose of 73.2 mg/kg, some of the above lesions could be observed, but the severity of the lesions was mild. After drug discontinuation, the lesions in the submandibular gland, testis, and epididymis were still visible in 73.2 and 219.6 mg/kg groups, and the severity of the lesions was not […]
disappeared after drug discontinuation.
In the dose range of 24.4 to 219.6 mg/kg, the exposure to ZG0128 and its metabolite ZG0245 in female and male rats increased in proportion to the dose, and no significant gender difference was observed. After 28 days of consecutive administration, […]
both female and male rats of each dose group.
After the Wistar rats were given 24.4, 73.2, and 219.6 mg/kg of ZG0128 by oral […]
mg/kg. At this dose, the drug exposure dose in female rats on the first day of dosing […]
10124 h•ng/mL in male rats. On day 28 of dosing, the drug exposure dose in female

The text on data set [3]: Chemical Drug Class 1 New Drug
A Toxicity Test in Beagle Dogs Administered ZG0128 by Oral Gavage for 28 […]
The study consisted of 4 groups, including the control group and dose groups of […]
active ingredient ZG0163). Each group contained 10 dogs, with 5 male dogs and 5 female dogs. The dogs in each group were orally administered with control (empty capsule) or the corresponding doses of ZG0128 once a day for 28 consecutive days, followed by 28 days for recovery after drug discontinuation. The day of the first dose is defined as day 1 of the dosing period. During the dosing period and the recovery period, the general conditions of the dogs in different groups were observed every day.
The body weight and food intake of the dogs were measured twice a week during the dosing period and once a week during the recovery period, respectively. At 2-3 h after the dosing on day 14, and 2-3 h after the last dose as well as on the last day of the recovery period. The lead II electrocardiogram, blood pressure and body temperature (anal temperature) were measured. One ophthalmic examination and routine urinalysis were arranged at the end of dosing and recovery periods, respectively. Hematology and blood biochemistry tests were performed on day 15 and the end of the dosing and recovery periods, respectively.
In all other groups, 6 and 4 dogs
(male:female=1:1) were dissected at the end of dosing and recovery periods, respectively. After the dogs were euthanized, bone marrow smear, gross anatomy, organ weight measurement and histopathological examination of tissue samples were performed. Blood samples were collected from dogs before the first/last dose and 0.5, 1, 2, 4, 6, 10, 24 h after drug administration in ZG0128 dose groups. Blood samples were collected before the first/last dose and 2 h after the first/last dose, respectively.
LC-MS/MS was used to measure the concentration of the original drug ZG0163 and […]
the amide hydrolysis metabolite ZG0245 in blood samples at various time points and to calculate AUClast, Cmax, Tmax, and other toxicokinetic parameters.

Data set [4] is described as follows: 26-week oral gavage toxicity. The data set is classed as in vivo, Wistar rats. The procedure:
as §1
Wistar rats were given 4, 12, or 30 mg/kg of ZG0128 via oral gavage once a day for 26 consecutive weeks, followed by 28 days for recovery after drug discontinuation.
Only the 30 mg/kg dose caused a slight decrease in lymphocyte counts, which might be related to the pharmacological effects of ZG0128. The lymphocyte counts were back to normal by the end of recovery period. No other obvious abnormalities related to the […]
conditions, body weight, ophthalmologic examination, blood biochemistry, blood coagulation, routine urinalysis, gross anatomy and histopathological examination during the trial. The no observed adverse effect level (NOAEL) was 30 mg/kg. At this dose, the drug exposure was 52697 h•ng/mL (based on the active ingredient ZG0163) in female rats and 67133 h•ng/mL in male rats on the first day of dosing, and on day 182 of dosing the drug exposure was 75339 h•ng/mL (based on the active ingredient ZG0163) in female rats and 45024 h•ng/mL in male rats. […]

Take Jaktinib: the AUC0-t in data set [1] (single oral 366 mg/kg ZG0128) was 10215 ± 10044 ng/mL; in data set [1] (single oral 1220 mg/kg ZG0128) it was 19752 ± 9998 ng/mL. Besides, the drug exposure stood at 51893 ± 20625 ng·h/mL in data set [2] (female rats, day 28); 60887 ± 21040 ng·h/mL in data set [2] (female rats, first day); 46522 ± 17149 ng·h/mL in data set [2] (male rats, day 28); 50799 ± 10124 ng·h/mL in data set [2] (male rats, first day). For the same molecule, the NOAEL in data set [3] (28 days) is listed as 18.3 mg/kg; in data set [3] (Beagle dogs, oral, 28 days), 18.3 mg/kg/day; in data set [4] (26 weeks), 30 mg/kg; in data set [4] (Wistar rats, oral, 26 weeks), 30 mg/kg/day.

`Cl.Cl.O.[2H]C1([2H])COCC([2H])([2H])N1c1ccc(Nc2nccc(-c3ccc(C(=O)NCC#N)cc3)n2)cc1` [ZG0128, Jaktinib Dihydrochloride Monohydrate]: the “maximum tolerated dose (MTD)” value in data set [1] (single oral dose) is listed as 1220 mg/kg. Also, the “highest non-severely toxic dose (HNSTD)” value in data set [2] (28 consecutive days) was found to be 24.4 mg/kg; in data set [3] (dog, in vivo), 61 mg/kg. Further, the “dose causing dying or death” value in data set [2] (28 days) stood at 219.6 mg/kg. Moreover, the NOAEL in data set [3] (28 days) is given as 18.3 mg/kg; in data set [4] (rat, in vivo), 30 mg/kg. Moreover, the dose causing death in data set [3] (28 days) worked out at 195.2 mg/kg.
